Data as given in patent publication US9198886B2, “Use of 2,5-dihydroxybenzene for the treatment of ocular diseases” (priority 2006, dated 2015).

Experiments:
[1] = system: human retinal endothelial cells (HREC); test: Proliferation of human retinal endothelial cells (crystal violet); type: cell-based; conditions: 72 hours
Protocol: (§1) Primary cultures of human retinal endothelial cells (HREC) were used. Cells were obtained from Cell Systems (Virginia, USA) and subcultured with CSC complete medium (Cell Systems). Cells at 2 to 5 passages were seeded in 24-well plates at 7,500 cells/well density and, once attached, the cells were treated or not treated (controls) with 2A-5HBS (500 and 1000 μM) or 5A-2HBS (500 and 1000 μM) and they were allowed to proliferate for 72 hours, with daily medium changes. After that, the proliferation of HREC was evaluated by staining the fixed cells with crystal violet. The number of cells is proportional to the amount of retained dye, which was spectrophotometrically determined by measuring absorbance at 595 nm after removing the dye from the cells. Data are expressed as the percentage of absorbance at 595 nm obtained in control conditions. Data were obtained from two different experiments performed in triplicate.
as §1, with “2,5-DHCME (50” for “2A-5HBS (500”, “100” for “1000 μM) or 5A-2HBS (500 and 1000”, “changes. Under the same conditions, other cultures were treated with calcium 2,5-dihydroxybenzenesulfonate (DHBS; 100 μM) for comparison.” for “changes.”

[2] = target: T1, fibroblast growth factor-1 (FGF-1) (Homo sapiens, UniProt P05230); test: Co-crystal structure with fibroblast growth factor-1; type: binding; conditions: for binding site on FGF-1: crystal diffraction of the complex; for acetoxyl groups of the compound when bound to FGF-1: crystal diffraction, electron density contoured at 1σ
T1 sequence (P05230 whole entry, species assumed): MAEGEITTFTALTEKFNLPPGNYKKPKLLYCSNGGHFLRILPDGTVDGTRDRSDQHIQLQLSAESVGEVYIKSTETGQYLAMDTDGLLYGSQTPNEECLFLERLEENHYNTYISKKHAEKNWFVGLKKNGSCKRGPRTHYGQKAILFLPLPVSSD
From the text: (§2) FIG. 24. 2-acetoxy-5-hydroxybenzenesulfonic acid co-crystallized with fibroblast growth factor-1. […] The compound occupies a place that is very close to that described occupied by 2,5-dihydroxybenzenesulfonic acid, the aromatic ring of which forms a cation-π bond with the N^ε group of lysine 132, which is marked in panel A as reference. […] In panels A and B, the protein surface is colored according to its electrostatic potential (light grey: negative charge; dark grey: positive charge; white: lack of charge).
as §2, with “25. 5-acetoxy-2-hydroxybenzenesulfonic” for “24. 2-acetoxy-5-hydroxybenzenesulfonic”
as §2, with “26. 2,5-diacetoxybenzenesulfonic” for “24. 2-acetoxy-5-hydroxybenzenesulfonic”
Based on the crystal diffraction of the FGF-1:2-acetoxy-5-hydroxybenzene sulfonic acid, FGF-1:5-acetoxy-2-hydroxybenzene sulfonic acid and FGF-1:2,5-diacetoxybenzene sulfonic acid complexes, the structures of the complexes were calculated and represented. FIGS. 24, 25 and 26, which show the surface of the dyed protein according to its electrostatic potential (light grey: negative charge; dark grey: positive charge; white: lack of charge), show the manner in which 2-acetoxy-5-hydroxybenzene sulfonic acid, 5-acetoxy-2-hydroxybenzene sulfonic acid and 2,5-diacetoxybenzene sulfonic acid interact, respectively, with FGF-1.

rat glioma C6 cells = test: Proliferation of rat glioma C6 cells (crystal violet); type: cell-based; conditions: 500 μM, 48 h
Protocol: FIG. 23. […] 5A-2HBS and 2A-5HBS were administered or not (control) after seeding C6 cells in 24 well plates (10^4 per well) until they were fixed 48 hours later. Data are expressed as the mean±SEM of the percentage of absorbance at 595 nm obtained in control cultures, which is proportional to the number of cells stained with crystal violet. Data were obtained from 3 cultures for each treatment and 6 control cultures.
The cell line used was the C6 cell line. The cells were cultured as previously described (Cuevas P et al., Neurol Res 2005, 27:797-800). The cells were cultured as adherent cells in Dulbecco's modified Eagle's medium, supplemented with 7.5% (v/v) fetal bovine serum, 10 μg/ml streptomycin and 10 units/ml penicillin. The tumor cells were seeded in 24-well plates at a density of 10,000 cells/well, and were incubated at 37° C. in a humidified chamber with 5% CO2. Once adhered, the cells were treated or not (controls) with (5A-2HBS) (500 μM) or (2A-5HBS) (500 μM) and they were allowed to proliferate for 48 h. After this time the glioma cell proliferation was evaluated by means of staining the fixed cells with crystal violet. The number of cells is proportional to the amount of retained dye, which was determined spectrophotometrically by measuring the absorbance at 595 nm once the dye was extracted from the cells.

[3] = target: T1, fibroblast growth factor-1 (FGF-1); test: FGF-1 induced mitogenesis in quiescent Balb/c 3T3 fibroblasts; type: cell-based; conditions: potassium salts, except 2-acetoxy-5-hydroxybenzene sulfonate as calcium salt
Protocol: The evaluated compounds were used in the form of potassium salt, except in the first case in which calcium salt was used. The experiments were carried out as described in Fernández-Tornero C et al. J Biol Chem, 2003.

[4] = system: corneal neovascularization; test: Topical solution in a patient with corneal neovascularization; type: in vivo, human; conditions: 5% solution of potassium salt, 4 drops a day topically, 19 days, one patient
From the text: Photographs showing the presence of corneal neovascularization in a patient before being treated (A) and after 19 days of topical application of a solution containing 5% of potassium 2,5-dihydroxybenzoate (B). The treatment consisted of daily topical application of 4 drops of such solution.
4 drops a day were topically applied in a patient that presented a corneal neovascularization process refractory to any type of previous treatment.

SMILES | HREC proliferation ([1]; 50 μM) | HREC proliferation ([1]; 100 μM, DHBS as calcium salt) | HREC proliferation ([1]; 500 μM) | HREC proliferation ([1]; 1000 μM) | binding site on FGF-1 [2] | acetoxyl groups of the compound when bound to FGF-1 [2] | C6 glioma cell proliferation (rat glioma C6 cells) | FGF-1 induced mitogenesis [3] | degree of corneal vascularization [4]
COC(=O)C=Cc1cc(O)ccc1O [2,5-DHCME, 2,5-dihydroxycinnamic acid methyl ester] | significant inhibition of HREC proliferation | significant inhibition of HREC proliferation | – | – | – | – | – | – | –
CC(=O)Oc1ccc(O)cc1S(=O)(=O)[O-].[K+] [2A-5HBS, potassium 2-acetoxy-5-hydroxybenzene sulfonate] | – | – | significant inhibition of HREC proliferation | significant inhibition of HREC proliferation | very close to the one that has been described occupied by 2,5-dihydroxybenzene sulfonic acid | conserve the acetoxyl groups | inhibition of rat glioma cell proliferation | Inhibition of FGF-1 induced mitogenesis was observed | –
CC(=O)Oc1ccc(O)c(S(=O)(=O)[O-])c1.[K+] [5A-2HBS, potassium 5-acetoxy-2-hydroxybenzene sulfonate] | – | – | – | – | very close to the one that has been described occupied by 2,5-dihydroxybenzene sulfonic acid | conserve the acetoxyl groups | inhibition of rat glioma cell proliferation | Inhibition of FGF-1 induced mitogenesis was observed | –
O=C([O-])c1cc(O)ccc1O.[K+] [2,5-dihydroxybenzoate, potassium 2,5-dihydroxybenzoate] | – | – | – | – | – | – | – | – | remarkable reduction in the degree of corneal vascularization
